US10968178B2, “IP6K inhibitors” (TAKEDA PHARMACEUTICAL COMPANY LIMITED, priority 2017, dated 2021)

How the values were obtained:
Assay type in all cases: biochemical
human IP6K2 = target: T1, human IP6K2 (Homo sapiens, UniProt Q9UHH9); assay: IP6K enzyme inhibitory assay (ADP-Glo Kinase Assay), human IP6K2; conditions: compound concentration 0.1 μM; read-out: ADP-Glo method inhibitory rate (%) human IP6K2
T1 construct: human IP6K2 (1-426) gene; GST; made in house; host or cells: Sf-9 insect cells
T1 sequence (Q9UHH9 1-426): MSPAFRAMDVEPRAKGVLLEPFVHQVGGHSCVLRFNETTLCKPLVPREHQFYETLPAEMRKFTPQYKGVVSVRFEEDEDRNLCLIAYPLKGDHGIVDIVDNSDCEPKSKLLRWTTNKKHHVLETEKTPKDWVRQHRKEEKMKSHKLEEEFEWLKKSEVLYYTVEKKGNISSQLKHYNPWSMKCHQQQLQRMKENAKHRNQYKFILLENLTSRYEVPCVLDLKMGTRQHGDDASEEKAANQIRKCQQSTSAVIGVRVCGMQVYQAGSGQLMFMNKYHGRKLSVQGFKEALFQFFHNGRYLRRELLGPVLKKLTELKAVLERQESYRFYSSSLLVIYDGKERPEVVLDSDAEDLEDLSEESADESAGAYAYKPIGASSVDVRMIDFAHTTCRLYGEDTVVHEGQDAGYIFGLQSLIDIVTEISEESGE
Outline: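 The inhibitory activity against human IP6K2 was measured with Promega's ADP-Glo Kinase Assay in 384 well plates. Test compound, diluted in assay buffer (20 mM HEPES (pH 7.5), 6 mM MgCl2, 0.01% Tween-20, 1 mM DTT), was added at 2 μL. Adding 2 μL of diluted enzyme started the reaction, which ran for 60 min at room temperature. Next, 3 μL ADP-Glo solution (30 min) and 6 μL Kinase-Detection solution (60 min) were added, and luminescence was read on an Envision plate reader.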

human IP6K1 = target: T2, human IP6K1 (Homo sapiens, UniProt Q92551); assay: IP6K enzyme inhibitory assay (ADP-Glo Kinase Assay), human IP6K1; conditions: compound concentration 0.1 μM; read-out: ADP-Glo method inhibitory rate (%) human IP6K1
T2 construct: human IP6K1 (1-441) gene; GST; made in house; host or cells: Sf-9 insect cells
Outline: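 Inhibition of human IP6K1 was determined with Promega's ADP-Glo Kinase Assay in 384 well plates. Test compound diluted in assay buffer (20 mM HEPES (pH 7.5), 6 mM MgCl2, 0.01% Tween-20, 1 mM DTT) was added at 2 μL, then 2 μL of enzyme started the reaction for 60 min at room temperature. Next came 3 μL ADP-Glo solution for 30 min and 6 μL Kinase-Detection solution for 60 min. Luminescence was read on an Envision plate reader.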

human IP6K3 = target: T3, human IP6K3 (Homo sapiens, UniProt Q96PC2); assay: IP6K enzyme inhibitory assay (ADP-Glo Kinase Assay), human IP6K3; conditions: compound concentration 0.1 μM; read-out: ADP-Glo method inhibitory rate (%) human IP6K3
T3 construct: human IP6K3 (1-410) gene; made in house; host or cells: BL21 (DE3) Escherichia coli
T3 sequence (Q96PC2 1-410): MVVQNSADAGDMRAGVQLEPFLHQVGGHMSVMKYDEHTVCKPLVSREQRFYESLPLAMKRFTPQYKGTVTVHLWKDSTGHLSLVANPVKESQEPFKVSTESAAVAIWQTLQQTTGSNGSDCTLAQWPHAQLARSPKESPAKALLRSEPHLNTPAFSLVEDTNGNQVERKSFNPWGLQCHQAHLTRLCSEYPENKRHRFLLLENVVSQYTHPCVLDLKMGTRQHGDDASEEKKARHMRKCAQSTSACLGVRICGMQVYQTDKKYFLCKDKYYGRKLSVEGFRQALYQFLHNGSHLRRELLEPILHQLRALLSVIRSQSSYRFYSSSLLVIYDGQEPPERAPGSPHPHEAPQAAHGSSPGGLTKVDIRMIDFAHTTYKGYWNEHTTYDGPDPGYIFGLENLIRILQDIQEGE
Outline: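 Recombinant human IP6K (IP6K3 residues 1-410, E. coli, Ni-NTA purified) incubated with compound in 20 mM HEPES pH 7.5, 6 mM MgCl2, 0.01% Tween-20, 1 mM DTT for 60 min at room temperature. ADP formed read as luminescence by ADP-Glo.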

T2 sequence (Q92551 whole entry): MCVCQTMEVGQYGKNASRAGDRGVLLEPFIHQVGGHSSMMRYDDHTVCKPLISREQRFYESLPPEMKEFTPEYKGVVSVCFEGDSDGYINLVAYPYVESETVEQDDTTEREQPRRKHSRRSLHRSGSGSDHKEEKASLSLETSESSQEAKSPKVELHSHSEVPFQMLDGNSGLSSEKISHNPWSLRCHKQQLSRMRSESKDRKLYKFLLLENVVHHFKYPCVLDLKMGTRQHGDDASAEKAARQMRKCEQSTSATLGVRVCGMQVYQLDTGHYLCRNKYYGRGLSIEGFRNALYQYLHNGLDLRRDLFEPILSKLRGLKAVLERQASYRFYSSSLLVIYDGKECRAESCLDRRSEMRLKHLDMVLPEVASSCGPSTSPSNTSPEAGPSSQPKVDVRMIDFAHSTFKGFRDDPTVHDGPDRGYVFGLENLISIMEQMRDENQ

SMILES	inhibition at 0.1 µM (human IP6K2) [%]	inhibition at 0.1 µM (human IP6K1) [%]	inhibition at 0.1 µM (human IP6K3) [%]
O=C(O)c1ccc2c(n1)[C@]1(CC[C@H](Oc3ccc(F)cc3F)CC1)C(=O)N2 [Example 84, (1s,4s)-4-(2,4-difluorophenoxy)-2′-oxo-1′,2′-dihydrospiro[cyclohexane-1,3′-pyrrolo[3,2-b]pyridine]-5′-carboxylic acid]	59	75	91
O=C(O)c1ccc2c(n1)[C@]1(CC[C@H](Oc3ccccc3Cl)CC1)C(=O)N2 [Example 85, (1s,4s)-4-(2-chlorophenoxy)-2′-oxo-1′,2′-dihydrospiro[cyclohexane-1,3′-pyrrolo[3,2-b]pyridine]-5′-carboxylic acid]	71	81	95
O=C(O)c1ccc2c(n1)[C@]1(CC[C@H](Oc3c(F)cc(Cl)cc3F)CC1)C(=O)N2 [Example 86, (1s,4s)-4-(4-chloro-2,6-difluorophenoxy)-2′-oxo-1′,2′-dihydrospiro[cyclohexane-1,3′-pyrrolo[3,2-b]pyridine]-5′-carboxylic acid]	50	55	80
O=C(O)c1ccc2c(c1)[C@]1(CC[C@H](Oc3ncc(Cl)cc3F)CC1)C(=O)N2 [Example 87, (1s,4s)-4-((5-chloro-3-fluoropyridin-2-yl)oxy)-2′-oxo-1′,2′-dihydrospiro[cyclohexane-1,3′-indole]-5′-carboxylic acid]	102	107	102
O=C(O)c1ccc2c(n1)[C@]1(CC[C@H](Oc3ccc(Cl)cc3)CC1)C(=O)N2 [Example 88, (1s,4s)-4-(4-chlorophenoxy)-2′-oxo-1′,2′-dihydrospiro[cyclohexane-1,3′-pyrrolo[3,2-b]pyridine]-5′-carboxylic acid]	97	101	97
Cc1cc(Cl)cc(C)c1O[C@H]1CC[C@]2(CC1)C(=O)Nc1ccc(C(=O)O)nc12 [Example 89, (1s,4s)-4-(4-chloro-2,6-dimethylphenoxy)-2′-oxo-1′,2′-dihydrospiro[cyclohexane-1,3′-pyrrolo[3,2-b]pyridine]-5′-carboxylic acid]	14	9	26
O=C(O)c1ccc2c(n1)[C@]1(CC[C@@H](Oc3ccccc3Cl)CC1)C(=O)N2 [Example 90, (1r,4r)-4-(2-chlorophenoxy)-2′-oxo-1′,2′-dihydrospiro[cyclohexane-1,3′-pyrrolo[3,2-b]pyridine]-5′-carboxylic acid]	47	49	61
O=C(O)c1ccc2c(n1)[C@]1(CC[C@@H](Oc3ccc(F)cc3F)CC1)C(=O)N2 [Example 91, (1r,4r)-4-(2,4-difluorophenoxy)-2′-oxo-1′,2′-dihydrospiro[cyclohexane-1,3′-pyrrolo[3,2-b]pyridine]-5′-carboxylic acid]	60	69	79
O=C(O)c1ccc2c(n1)[C@]1(CC[C@@H](Oc3ccc(Cl)cc3)CC1)C(=O)N2 [Example 92, (1r,4r)-4-(4-chlorophenoxy)-2′-oxo-1′,2′-dihydrospiro[cyclohexane-1,3′-pyrrolo[3,2-b]pyridine]-5′-carboxylic acid]	92	97	98
O=C(O)c1ccc2c(n1)[C@]1(CC[C@@H](Oc3c(F)cc(Cl)cc3F)CC1)C(=O)N2 [Example 93, (1r,4r)-4-(4-chloro-2,6-difluorophenoxy)-2′-oxo-1′,2′-dihydrospiro[cyclohexane-1,3′-pyrrolo[3,2-b]pyridine]-5′-carboxylic acid]	96	92	101
Cc1cc(Cl)cc(C)c1O[C@H]1CC[C@@]2(CC1)C(=O)Nc1ccc(C(=O)O)nc12 [Example 94, (1r,4r)-4-(4-chloro-2,6-dimethylphenoxy)-2′-oxo-1′,2′-dihydrospiro[cyclohexane-1,3′-pyrrolo[3,2-b]pyridine]-5′-carboxylic acid]	97	91	101
O=C(O)c1ccc2c(n1)[C@]1(CC[C@@H](Oc3ccc(Cl)cc3C(F)(F)F)CC1)C(=O)N2 [Example 95, (1r,4r)-4-(4-chloro-2-(trifluoromethyl)phenoxy)-2′-oxo-1′,2′-dihydrospiro[cyclohexane-1,3′-pyrrolo[3,2-b]pyridine]-5′-carboxylic acid]	91	88	96
O=C(O)c1ccc2c(n1)[C@]1(CC[C@H](Oc3ccc(Cl)cc3C(F)(F)F)CC1)C(=O)N2 [Example 96, (1s,4s)-4-(4-chloro-2-(trifluoromethyl)phenoxy)-2′-oxo-1′,2′-dihydrospiro[cyclohexane-1,3′-pyrrolo[3,2-b]pyridine]-5′-carboxylic acid]	99	95	101
O=C(O)c1ccc2c(n1)[C@]1(CC[C@@H](Oc3ncc(Cl)cc3C(F)(F)F)CC1)C(=O)N2 [Example 99, (1r,4r)-4-((5-chloro-3-(trifluoromethyl)pyridin-2-yl)oxy)-2′-oxo-1′,2′-dihydrospiro[cyclohexane-1,3′-pyrrolo[3,2-b]pyridine]-5′-carboxylic acid]	64	51	83
O=C(O)c1ccc2c(n1)[C@]1(CC[C@H](Oc3ncc(Cl)cc3F)CC1)C(=O)N2 [Example 100, (1s,4s)-4-((5-chloro-3-fluoropyridin-2-yl)oxy)-2′-oxo-1′,2′-dihydrospiro[cyclohexane-1,3′-pyrrolo[3,2-b]pyridine]-5′-carboxylic acid]	98	76	97
O=C(O)c1ccc2c(n1)[C@]1(CC[C@H](Oc3ccc(Cl)cc3Cl)CC1)C(=O)N2 [Example 101, (1s,4s)-4-(2,4-dichlorophenoxy)-2′-oxo-1′,2′-dihydrospiro[cyclohexane-1,3′-pyrrolo[3,2-b]pyridine]-5′-carboxylic acid]	100	104	98
O=C(O)c1ccc2c(n1)[C@]1(CC[C@@H](Oc3ccc(Cl)cc3Cl)CC1)C(=O)N2 [Example 102, (1r,4r)-4-(2,4-dichlorophenoxy)-2′-oxo-1′,2′-dihydrospiro[cyclohexane-1,3′-pyrrolo[3,2-b]pyridine]-5′-carboxylic acid]	94	105	97
Cc1cc(C(F)(F)F)cnc1O[C@H]1CC[C@]2(CC1)C(=O)Nc1ccc(C(=O)O)nc12 [Example 103, (1s,4s)-4-((3-methyl-5-(trifluoromethyl)pyridin-2-yl)oxy)-2′-oxo-1′,2′-dihydrospiro[cyclohexane-1,3′-pyrrolo[3,2-b]pyridine]-5′-carboxylic acid]	99	98	99
Cc1ccc(C#N)c(O[C@H]2CC[C@]3(CC2)C(=O)Nc2ccc(C(=O)O)cc23)n1 [Example 104, (1s,4s)-4-((3-cyano-6-methylpyridin-2-yl)oxy)-2′-oxo-1′,2′-dihydrospiro[cyclohexane-1,3′-indole]-5′-carboxylic acid]	99	95	98
